Reference: the supplement of paper PMC11061612

How the values were obtained:
Test in all cases: combination Emax (second highest fraction inhibited in the dose matrix, 72 h); higher = more inhibition; extreme values may be limits of the assay
[1] = tested on: IA-LM (Non-Small Cell Lung Carcinoma)
Method in brief: (§1)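 Cell lines grown in DMEM/F12 or RPMI with 10% FBS were plated in 1536-well plates and held 24 hours at 37°C, 5% CO2 before 72 hours of exposure to two-drug dose matrices, with DMSO typically at 0.2%. CellTiter-Glo 2.0 luminescence gave viability, which was converted to inhibition. Vehicle wells were set to 0 and blank wells to 1. Combination Emax is the second-highest inhibition in the matrix, and Bliss excess is the observed combination effect minus the expected EA + EB − EA·EB, where EA and EB are the single-agent effects.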

[2] = tested on: KP-4 (Pancreatic Carcinoma)
Method in brief: as §1

[3] = tested on: T47D (Breast Carcinoma)
Method in brief: as §1

[4] = tested on: BxPC-3 (Pancreatic Carcinoma)
Method in brief: as §1

[5] = tested on: SUP-M2 (T-Cell Non-Hodgkin's Lymphoma)
Method in brief: as §1

[6] = tested on: PA-TU-8988T (Pancreatic Carcinoma)
Method in brief: as §1

[7] = tested on: SNU-423 (Hepatocellular Carcinoma)
Method in brief: as §1

[8] = tested on: GAK (Melanoma)
Method in brief: as §1

[9] = tested on: UACC-257 (Melanoma)
Method in brief: as §1

[10] = tested on: NB1 (Neuroblastoma)
Method in brief: as §1

[11] = tested on: SKG-IIIa (Cervical Carcinoma)
Method in brief: as §1

[12] = tested on: MDA-MB-415 (Breast Carcinoma)
Method in brief: as §1

[13] = tested on: LCLC-103H (Non-Small Cell Lung Carcinoma)
Method in brief: as §1

[14] = tested on: SCC-4 (Oral Cavity Carcinoma)
Method in brief: as §1

[15] = tested on: NCI-H596 (Other Solid Carcinomas)
Method in brief: as §1

[16] = tested on: NCI-H3118 (Head and Neck Carcinoma)
Method in brief: as §1

[17] = tested on: PL4 (Pancreatic Carcinoma)
Method in brief: as §1

[18] = tested on: NCI-H226 (Mesothelioma)
Method in brief: as §1

[19] = tested on: MS-1 (Small Cell Lung Carcinoma)
Method in brief: as §1

[20] = tested on: AM-38 (Glioblastoma)
Method in brief: as §1

Row | Structure (SMILES) | combination Emax [1] | combination Emax [2] | combination Emax [3] | combination Emax [4] | combination Emax [5] | combination Emax [6] | combination Emax [7] | combination Emax [8] | combination Emax [9] | combination Emax [10] | combination Emax [11] | combination Emax [12] | combination Emax [13] | combination Emax [14] | combination Emax [15] | combination Emax [16] | combination Emax [17] | combination Emax [18] | combination Emax [19] | combination Emax [20]
1 | COc1cccc(OCCCN)c1-c1cc(Nc2cnc(C#N)cn2)n[nH]1 [Prexasertib] + C=CCn1c(=O)c2cnc(Nc3ccc(N4CCN(C)CC4)cc3)nc2n1-c1cccc(C(C)(C)O)n1 [AZD1775] (first compound max 1 µM, partner max 1 µM) | 0.64 | 0.8 | 0.704 | 0.76 | 1 | 0.898 | 0.878 | 0.783 | 0.48 | 0.906 | 0.527 | 0.584 | 0.854 | 0.665 | 0.65 | 0.906 | 0.852 | 0.393 | 1 | 0.857
2 | CN(C)CCCOc1ccc(-c2ccc3ncc4c(c3c2)n(C2CCOCC2)c(=O)n4C)cn1 [AZD0156] + CCN(CCO)CCCOc1ccc2c(Nc3cc(CC(=O)Nc4cccc(F)c4)[nH]n3)ncnc2c1 [AZD2811] (first compound max 1 µM, 7x7, partner max 1 µM) | 0.0974 | 0.327 | 0.282 | 0.101 | 0.94 | 0.219 | 0.194 | 0.198 | 0.119 | 0.641 | 0.0993 | 0.206 | 0.29 | 0.336 | 0.207 | 0.0407 | 0.256 | 0.0682 | 0.224 | 0.342
3 | NC1(C(=O)N[C@@H](CCO)c2ccc(Cl)cc2)CCN(c2ncnc3[nH]ccc23)CC1 [Capivasertib] + COc1nnc2ccc(N3CCC(c4ccc(OCCN5CCN(C)C(=O)[C@H]5C)cc4)CC3)nn12 [AZD5153] (first compound max 10 µM, 7x7, partner max 1 µM) | 0.317 | 0.58 | 0.477 | 0.399 | 0.915 | 0.798 | 0.513 | 0.376 | 0.355 | 0.885 | 0.43 | 0.9 | 0.559 | 0.678 | 0.639 | 0.537 | 0.613 | 0.402 | 0.931 | 0.448
4 | COc1cccc(OCCCN)c1-c1cc(Nc2cnc(C#N)cn2)n[nH]1 [Prexasertib] + CCc1c2c(nc3ccc(O)cc13)-c1cc3c(c(=O)n1C2)COC(=O)[C@]3(O)CC [SN-38] (first compound max 1 µM, 7x7, partner max 0.3 µM) | 0.867 | 0.9 | 0.784 | 0.796 | 1 | 0.921 | 0.779 | 0.641 | 0.295 | 0.912 | 0.595 | 0.538 | 0.932 | 0.917 | 0.735 | 0.872 | 0.877 | 0.4 | 0.987 | 0.891
5 | C=CCn1c(=O)c2cnc(Nc3ccc(N4CCN(C)CC4)cc3)nc2n1-c1cccc(C(C)(C)O)n1 [AZD1775] + O=C(c1cc(Cc2n[nH]c(=O)c3ccccc23)ccc1F)N1CCN(C(=O)C2CC2)CC1 [Olaparib] (first compound max 1 µM, partner max 10 µM) | 0.252 | 0.721 | 0.362 | 0.511 | 0.993 | 0.8 | 0.731 | 0.804 | 0.166 | 0.819 | 0.369 | 0.229 | 0.546 | 0.496 | 0.431 | 0.889 | 0.494 | 0.342 | 0.924 | 0.496
6 | C[C@@H](c1ccc2nccn2c1)n1nnc2ncc(-c3cnn(C)c3)nc21 [Savolitinib] + CC1(C)CCC(CN2CCN(c3ccc(C(=O)NS(=O)(=O)c4ccc(NCC5CCOCC5)c([N+](=O)[O-])c4)c(Oc4cnc5[nH]ccc5c4)c3)CC2)=C(c2ccc(Cl)cc2)C1 [Venetoclax] (first compound max 1 µM, 7x7, partner max 1 µM) | 0.197 | 0.453 | 0.153 | 0.216 | 0.182 | 0.165 | 0.233 | 0.199 | 0.104 | 0.0333 | 0.12 | 0.261 | 0.146 | 0.101 | 0.229 | 0.115 | 0.125 | 0.17 | 0.155 | 0.0558
7 | CN(CCO)CC[C@H](CSc1ccccc1)Nc1ccc(S(=O)(=O)NC(=O)c2ccc(N3CCC([C@@H](O)c4ccccc4-c4ccc(Cl)cc4)CC3)cc2)cc1S(=O)(=O)C(F)(F)F [AZD4320] + C[C@@H]1COCCN1C2=NC(=NC(=C2)C3(CC3)[S@](=N)(=O)C)C4=C5C=CNC5=NC=C4 [AZD6738] (first compound max 1 µM, 7x7, partner max 10 µM) | 0.715 | 0.487 | 0.324 | 0.751 | 0.998 | 0.319 | 0.624 | 0.793 | 0.186 | 0.936 | 0.536 | 0.879 | 0.546 | 0.872 | 0.425 | 0.765 | 0.878 | 0.193 | 0.934 | 0.95
8 | CC1(C)CCC(CN2CCN(c3ccc(C(=O)NS(=O)(=O)c4ccc(NCC5CCOCC5)c([N+](=O)[O-])c4)c(Oc4cnc5[nH]ccc5c4)c3)CC2)=C(c2ccc(Cl)cc2)C1 [Venetoclax] + CN(C)CCCOc1ccc(-c2ccc3ncc4c(c3c2)n(C2CCOCC2)c(=O)n4C)cn1 [AZD0156] (first compound max 1 µM, 7x7, partner max 1 µM) | 0.217 | 0.21 | 0.344 | 0.276 | 0.264 | 0.179 | 0.271 | 0.293 | 0.177 | 0.145 | 0.219 | 0.262 | 0.285 | 0.358 | 0.232 | 0.181 | 0.248 | 0.212 | 0.445 | 0.209
9 | Cc1cc2ncnn2cc1Nc1ncc2c(n1)n(C1CCOCC1)c(=O)n2C [AZD7648] + O=C(c1cc(Cc2n[nH]c(=O)c3ccccc23)ccc1F)N1CCN(C(=O)C2CC2)CC1 [Olaparib] (first compound max 10 µM, 7x7, partner max 10 µM) | 0.158 | 0.181 | 0.313 | 0.0851 | 0.831 | 0.339 | 0.275 | 0.0973 | 0.0535 | 0.191 | 0.0374 | 0.263 | 0.299 | 0.259 | 0.361 | 0.167 | 0.28 | 0.149 | 0.399 | 0.616
10 | CCN(CCO)CCCOc1ccc2c(Nc3cc(CC(=O)Nc4cccc(F)c4)[nH]n3)ncnc2c1 [AZD2811] + C=CCn1c(=O)c2cnc(Nc3ccc(N4CCN(C)CC4)cc3)nc2n1-c1cccc(C(C)(C)O)n1 [AZD1775] (first compound max 1 µM, partner max 1 µM) | 0.166 | 0.651 | 0.314 | 0.449 | 1 | 0.678 | 0.59 | 0.682 | 0.154 | 0.869 | 0.261 | 0.131 | 0.546 | 0.454 | 0.346 | 0.807 | 0.554 | 0.185 | 0.848 | 0.377
11 | CC1(C)CCC(CN2CCN(c3ccc(C(=O)NS(=O)(=O)c4ccc(NCC5CCOCC5)c([N+](=O)[O-])c4)c(Oc4cnc5[nH]ccc5c4)c3)CC2)=C(c2ccc(Cl)cc2)C1 [Venetoclax] + Cc1cc2ncnn2cc1Nc1ncc2c(n1)n(C1CCOCC1)c(=O)n2C [AZD7648] (first compound max 1 µM, 7x7, partner max 10 µM) | 0.261 | 0.126 | 0.32 | 0.283 | 0.283 | 0.238 | 0.292 | 0.204 | 0.159 | 0.561 | 0.24 | 0.342 | 0.282 | 0.235 | 0.226 | 0.137 | 0.357 | 0.171 | 0.445 | 0.318
12 | Cc1cc2ncnn2cc1Nc1ncc2c(n1)n(C1CCOCC1)c(=O)n2C [AZD7648] + CCN(CCO)CCCOc1ccc2c(Nc3cc(CC(=O)Nc4cccc(F)c4)[nH]n3)ncnc2c1 [AZD2811] (first compound max 10 µM, 7x7, partner max 1 µM) | 0.268 | 0.4 | 0.456 | 0.25 | 0.932 | 0.33 | 0.341 | 0.237 | 0.278 | 0.629 | 0.297 | 0.472 | 0.377 | 0.307 | 0.243 | 0.239 | 0.142 | 0.253 | 0.342 | 0.405
